# Measured values reported in patent US20120108669A1, “METHOD OF TREATING SLEEP DISORDERS USING EPLIVANSERIN” (SANOFI-AVENTIS, priority 2008, published 2012).
# Legend:
# [1] = test system: patients exposed to eplivanserin; assay: Example 3: diverticulitis in pooled phase 2 and 3 trials; assay type: in vivo, human
# From the text: Hereafter are the observations made in pooled phase 2 and 3 trials with eplivanserin or pharmaceutically acceptable salts or esters thereof.
# The majority of patients were non-elderly, females, and Caucasian with a median age between 47 and 51 years across treatment groups.
# [2] = test system: patients with chronic (primary) insomnia characterized by sleep maintenance difficulties; assay: Long-term studies LTE6217 and LTE6262 together: patient global impression, daytime function, residual effects; assay type: in vivo, human
# From the text: (§1) The Phase 3 program of development of eplivanserin in the treatment of patients with chronic (primary) insomnia characterized by sleep maintenance difficulties consisted of 3 randomized, double-blind (DB), placebo-controlled, efficacy and safety studies designed to assess the efficacy of eplivanserin on sleep maintenance either using polysomnography (PSG) recordings (6-week study EFC6220) or patient-reported outcome (12-week studies LTE6217 and LTE6262) collected daily on sleep questionnaires.
# (§2) They were all double-blind (DB), randomized, placebo-controlled studies. In all studies, treatment period was preceded by a one week, placebo run-in period, designed to check selection criteria for insomnia based on patient reported sleep parameters collected on the daily sleep questionnaires (Studies LTE6217, and LTE6262) or based on PSG recordings during two screening nights in a sleep laboratory (Study EFC6220). Treatment period was followed by a placebo run-out period of 2 weeks designed to assess the effect of abrupt treatment discontinuation.
# (§3) Studies LTE6217 and LTE6262 measured the efficacy of eplivanserin in real life conditions of use at home by collecting daily sleep parameters reported by patients through an Interactive Voice Response System (IVRS).
# healthy male subjects = assay: Example 2: single-dose cross-over study of sleep (EEG) and daytime functioning; assay type: in vivo, human
# Method: The effects of eplivanserin or pharmaceutically acceptable salts or esters thereof on sleep and daytime functioning in healthy subjects were examined.
# Double-blind, randomized, placebo (PBO)-controlled, 4-period, cross-over study with a 1-2-week washout between each period. Single oral doses of eplivanserin or pharmaceutically acceptable salts or esters thereof 1, 10 and 40 mg and PBO were given to healthy male subjects in either the evening (pm) or the morning (am; n=16). Sleep was assessed objectively using an EEG and subjectively by Leeds Sleep Evaluation Questionnaire. Next-day psychomotor function, memory and arousal were measured objectively via Critical Flicker Fusion (CFF), Choice Reaction Time, Compensatory Tracking and Sternberg memory-scanning tasks. Subjective assessment of drug activity was performed using Line Analogue Rating Scales.
# [3] = test system: patients with chronic (primary) insomnia characterized by sleep maintenance difficulties; assay: Study LTE6262: 12-week patient-reported sleep parameters (daily sleep questionnaire, IVRS); assay type: in vivo, human; settings: 5 mg/day; for Quality of sleep Difference from Placebo LS Mean / Refreshing QoS Difference from Placebo LS Mean / pr-NAW Difference from Placebo LS Mean / Quality of sleep LS Mean / Refreshing QoS LS Mean / pr-NAW LS Mean: MMRM, ITT; for Quality of sleep LS Mean / Refreshing QoS LS Mean / pr-NAW LS Mean: mean change
# From the text: as §1, §2, §3
# In these tables, values are given as an amount of time expressed in minutes and seconds (mm:ss).
# [4] = test system: patients with chronic (primary) insomnia characterized by sleep maintenance difficulties; assay: Study EFC6220: 6-week polysomnography (PSG) study of sleep maintenance; assay type: in vivo, human; settings: for PSG-NAW (number of awakenings) LS mean: p<0.0001
# From the text: as §1, §2
# Study EFC6220 was designed to measure the pharmacodynamic activity of eplivanserin on sleep maintenance using PSG recordings in a sleep laboratory. Polysomnograms were recorded in standard conditions during 8 hours in bed.
# [5] = cited from earlier work
# [6] = 5 mg/day, in comparison with placebo, after 6 and 12 weeks
# [7] = single oral 1, 10 and 40 mg, morning or evening, P=0.0001 vs PBO
smiles,measurement,setting,value
"CN(C)CCO/N=C(/C=C/c1ccc(O)cc1)c1ccccc1F [eplivanserin, (1Z, 2E)-1-(2-fluorophenyl)-3-(4-hydroxyphenyl)-prop-2-en-1-one-O-(2-dimethylaminoethyl)oxime]",total episodes of diverticulitis,[1]; in the 30 patients,39
same,non-serious cases of diverticulitis,[1]; of 30 patients,23
same,serious cases of diverticulitis,[1]; of 30 patients,7
same,episodes of diverticulitis of mild intensity,[1]; per Investigator's judgment,Three out of 39
same,episodes of diverticulitis of moderate intensity,[1]; per Investigator's judgment,26/39
same,episodes of diverticulitis of severe intensity,[1]; per Investigator's judgment,10/39
same,PGI-item 1,[2]; [6],aid to sleep
same,PGI-item 3,[2]; [6],increasing duration of sleep
same,improvement of activities related to work and hobby activities,"[2]; after 12 weeks, Study LTE6262 and meta-analysis of LTE6262 and LTE6217, compared with placebo",positive effect
same,"""sleepiness in the morning"" and ""ability to concentrate""","[2]; reported by insomniac patients, compared with placebo",significantly favourable effect
same,potential for residual effects (next-day impairment),[2]; safety analyses,devoid of next-day impairment
same,Sleep efficiency (time asleep/time in bed),healthy male subjects; P=0.0004 vs PBO,significantly improved
same,number of awakenings ≧120 s,healthy male subjects; P=0.03 vs PBO,significantly reduced
same,CFF threshold detection,healthy male subjects; at all doses,slight decrease
same,Times to sleep onset and total sleep time,healthy male subjects; in vivo,unaffected
same,treatment-emergent AEs,healthy male subjects; in vivo,No serious or severe treatment-emergent AEs were reported
same,SWS,healthy male subjects; regardless of dosage or dose timing (morning or evening),doubled
same,"next-day objective psychomotor function or memory tests, subjective ratings of 'hangover' or CNS sedation","healthy male subjects; regardless of dose, or am or pm administration",no detrimental effects
same,'deep'/slow-wave sleep (SWS) time,healthy male subjects; [7],significantly increased
same,Stage 2 (light) sleep,healthy male subjects; [7],decreased
same,persistence of effect on sleep maintenance (pr-WASO),[3]; observed from Day 1,persisted up to 1 year of treatment
same,Quality of sleep Difference from Placebo LS Mean,[3]; Week 6,−0.13
same,Refreshing QoS Difference from Placebo LS Mean,[3]; Week 6,−0.13
same,pr-NAW Difference from Placebo LS Mean,[3]; Week 6,−0.34
same,Quality of sleep LS Mean,[3]; Week 6,−0.58
same,Refreshing QoS LS Mean,[3]; Week 6,−0.55
same,pr-NAW LS Mean,[3]; Week 6,−0.99
same,Quality of sleep Difference from Placebo LS Mean,[3]; Week 12,−0.14
same,Refreshing QoS Difference from Placebo LS Mean,[3]; Week 12,−0.15
same,pr-NAW Difference from Placebo LS Mean,[3]; Week 12,−0.35
same,Quality of sleep LS Mean,[3]; Week 12,−0.63
same,Refreshing QoS LS Mean,[3]; Week 12,−0.60
same,pr-NAW LS Mean,[3]; Week 12,−1.08
same,sleep onset (PSG-LPS and pr-SOL),[4]; 5 mg,did not affect sleep onset
same,percentage of time spent in sleep Stages 3&4 (slow wave sleep),[4]; 5 mg/day compared with placebo,increased percentage of time
same,sleep Stage 1,[4]; 5 mg/day compared with placebo,decrease of Stage 1
same,PSG-NAW (number of awakenings) LS mean,"[4]; Week 3, 5 mg",−1.74
same,PSG-WASO (Wake after sleep onset),"[4]; Week 3 and Week 6, difference with placebo did not reach statistical significance at Week 6",decreasing PSG-WASO
same,PSG-NAW (number of awakenings) LS mean,"[4]; Week 6, 5 mg",−1.82
same,number of brief awakenings (<1 min),[4]; compared to placebo,decreased the number of brief awakenings
same,QoS (quality of sleep),[4]; in vivo,improved
same,REM (rapid eye movement) sleep,[4]; in vivo,not affected
same,SWS/WASO+Stage 1 index,[4]; in vivo,increase of SWS/WASO+Stage 1 index
same,half-life time,[5]; average value,50 h
same,absorption (well absorbed),[5]; in vivo,> 70%
